Entries after “also recorded” stand apart in the source; their conditions may differ. Structures can show the parent of a compound that is named as a salt.
Legend:
[1] = test system: zebrafish lateral line hair cells; experiment: Uptake of TexasRed-conjugated neomycin (NEO-TR) into lateral line HCs; assay type: in vivo, Danio rerio; settings: for Details (uptake inhibitor mechanism): Table S1, by means other than MET channel inhibition (this study); for accumulation of NEO-TR within lateral line HCs: NEO-TR 50 μM, 30 min, co-administered AZM 190 µM or BZM 50 µM, myo6b::gfp larvae
Text: To further explore the mechanism of macrolide and aminoglycoside antagonism, we fluorescently labeled the aminoglycosides neomycin and gentamicin with Texas Red-X succinimidyl ester to track HC uptake with and without macrolide treatment (Table 1). To avoid breakdown of fluorescent vital dyes over time, we used larvae with the transgene Tg(myo6b:EGFP); myo6b::gfp, that expressed GFP in their HCs. Drug-induced injury was quantified by loss of fluorescence in HCs. Fish were exposed to the fluorescently-labeled drug with or without macrolide co-administration for 30 min, before being washed in fresh ICS water and anesthetized with 675 µM tricaine. Five fish per condition were transferred to 96-well plates for imaging, as per the drug response testing experiments, while another five were euthanized on ice for 20 min, then fixed in 2% paraformaldehyde for 1 hour at room temperature, to prepare for confocal microscopy. Samples were prepared and GFP fluorescence was acquired following the same confocal imaging procedure as described in Section 2.3; TexasRed fluorescence was acquired with a 595 nm laser and 675/75 emission filter.
For the fish transferred to 96-well plates for imaging, fluorescence microscopy was performed using the Keyence BZ-X800. Using the GFP filter and a TexasRed Filter (630/75 nm emission, 560/40 nm excitation), each myo6b::gfp fish was imaged under a ×2 objective to capture the whole organism in brightfield, green, and red fluorescence channels. Each fish was then imaged under a ×40 objective with z-stacking to track the uptake of the fluorescently labeled aminoglycoside into the HCs in the head of the fish.

[2] = test system: zebrafish lateral line hair cells; experiment: PEPITA quantification of ototoxicity in YO-PRO-1-stained AB zebrafish larvae; assay type: in vivo; settings: for ototoxic interaction with AZM: co-administration with AZM; for shift toward antagonism in lateral line HC damage as compared to inhibition of the bacterial species on average: interaction with AZM, zebrafish wEOB vs average of E. coli, M. abscessus, S. aureus; for EC75 shift: ototoxin co-administered with azithromycin (AZM) vs administered alone; for ototoxic interaction with clarithromycin (CLM): preliminary experiments; for interaction with neomycin in pairwise screen (wEOB): pairwise screen of NEO against 13 compounds; for HC inhibition: in the absence of AZM, 25 μM CAP, 600 μM CIS; for EC50 shift: ototoxin co-administered with AZM vs alone
Experimental: Therefore, at 5 dpf, larvae were transferred to 12-well plates (5–11 fish per well, 1 well per condition) containing the relevant compound or combination diluted with ICS water, or ICS water alone or high-dose neomycin to serve as controls. Unless otherwise noted, fish were exposed to drug (either an individual compound or a pairwise combination of compounds) for 4 h, as a balance between longer exposure times for accommodating varied kill kinetics and shorter exposure times for technical tractability. Treatments with multiple drugs involved co-administering a prepared solution consisting of both drugs with defined concentrations in ICS water.
Fluorescence microscopy was performed using a Keyence BZ-X800 microscope imaging system, which enables high-throughput semi-automated imaging of 96-well plates.
Each image was masked using automated object detection to include only the fish itself. Manual masks were created on occasion for avoidance of fluorescent contamination, adjusted segmenting for myo6b::gfp fish to remove inner ear HC fluorescence, or exclusion of dead or damaged fish. Each fish was then adjusted for autofluorescence using the fluorophore-free red channel and scored based on the sum of green fluorescence pixel values surrounding 10 of the top 15 brightest pixels in the masked image (Figures 1B–E). These scores were standardized by comparison with the median score of wells containing untreated fish and a score representing no remaining HC fluorescence, both derived for each plate.
Wells where the expected response ( Ra×Rb ) and observed response ( Rab ) were both less than 10% or greater than 90% were excluded from aggregation to reduce the effect of our choice of dose range. The remaining wells were summarized by averaging into a composite interaction score for the combination; we refer to this metric as the “windowed excess over Bliss” (wEOB).

[3] = test system: zebrafish lateral line hair cells; experiment: Lateral line hair cell intracellular calcium imaging and cell death; assay type: in vivo
Text: For calcium testing, zebrafish expressing HC-specific GCaMP targeted to the inner mitochondrial matrix were crossed with fish expressing a HC specific calcium indicator to create double-transgenic embryos (Tg (myo6b:mitoGCaMP3;myo6b:cytoRGECO), Table 1) with both green fluorescent mitochondrial calcium and red fluorescent cytosolic calcium indicators, then raised as described previously ([McQuate et al., 2023]). Zebrafish embryos were collected from 2-h spawning periods and raised in Petri dishes in embryo medium (EM: 14.97 mM NaCl, 500 μM KCl, 42 µM Na2HPO4, 150 µM KH2PO4, 1 mM CaCl2 dehydrate, 1 mM MgSO4, 0.714 mM NaHCO3, pH 7.2) at a density of 60 larvae per […] dish, in a dark 28.5°C incubator until 5 dpf. Larvae were screened for indicator expression at 4 dpf.
Calcium imaging was performed using an inverted Marianas spinning disk confocal system (Intelligent Imaging Innovations, 3i) with an Evolve 10 MHz EMCCD camera (Photometrics) and a Zeiss C-Apochromat 63x/1.2 numerical aperture water objective. Larvae were 5-6 dpf at the time of imaging. Larvae were first anesthetized in embryo media containing 800 µM tricaine, then stabilized on their sides under a harp, so that posterior neuromasts were exposed to the surrounding media. Imaging was performed at ambient temperature, approximately 25°C. GCaMP fluorescence was acquired with a 488 nm laser and 535/30 emission filter, with an exposure time of 100 ms, and RGECO fluorescence was acquired with a 561 nm laser and 617/73 emission filter and exposure time of 200 ms. Images were taken every 2 minutes as z-stacks through neuromasts in 2 µm steps. Neomycin and azithromycin were dissolved as a 4X stock in EM (described in Section 2.1: Zebrafish Husbandry), then added to the bath to achieve final working concentration after a 10-min baseline. Imaging of neuromasts continued for 50 min. Images were analyzed in ImageJ. Mean fluorescence intensity was measured for ROIs of individual randomly selected HCs (2–3 HCs per NM, see example ROI in Figure 4). For each HC, values were normalized to the average of baseline using Microsoft Excel.

MET channel = experiment: FM1-43 uptake quantification in lateral line HCs (MET channel activity); assay type: in vivo, Danio rerio; settings: AZM 190 µM, BZM 50 µM, 30 min, myo6b::gfp larvae
Experimental: FM1-43 experiments were performed with myo6b::gfp fish, raised to 5 dpf as above. Fish were exposed to drug conditions for 30 min, with 4 µM FM1-43 stain added into the drug treatment solution at minute 29, for a 1-min co-treatment stain exposure followed by simultaneous washout of all drugs and stain in fish water and anesthesia in 675 µM tricaine (selection of staining concentration and exposure duration was informed by ([Hernandez et al., 2006]; [Van Trump et al., 2010]; [Thomas et al., 2013]; [Monroe et al., 2016]; [Hailey et al., 2017]; [Majumder et al., 2017]; [Rocha-Sanchez et al., 2018]; [Stawicki et al., 2019]; [Parkinson and Stawicki, 2021]; [Lee et al., 2022]; [Derudas et al., 2023]; [Schrauwen et al., 2023])). Four to seven fish per condition were transferred to 96-well plates for imaging. Using the Keyence BZ-X800 with GFP filter and a custom filter (605/70 nm emission, 470/40 nm excitation), each fish was imaged with a ×2 objective in brightfield and green and red fluorescence channels as above. FM1-43 uptake was validated using benzamil, a known uptake inhibitor ([Rusch et al., 1994]).

## CC[C@H]1OC(=O)[C@H](C)[C@@H](O[C@H]2C[C@@](C)(OC)[C@@H](O)[C@H](C)O2)[C@H](C)[C@@H](O[C@@H]2O[C@H](C)C[C@H](N(C)C)[C@H]2O)[C@](C)(O)C[C@@H](C)C(=O)[C@H](C)[C@@H](O)[C@]1(C)O [Erythromycin]
[1]
  Details (uptake inhibitor mechanism): Prevents neomycin uptake
[2]; macrolide co-administered with aminoglycosides
  otoprotection against aminoglycoside ototoxicity during co-administration: antagonistic otoprotection broadly against aminoglycoside ototoxicity

## CNC(C)C1CCC(N)C(OC2C(N)CC(N)C(OC3OCC(C)(O)C(NC)C3O)C2O)O1 (stereo not shown) [Gentamicin (GEN), Gentamicin sulfate]
[2]
  ototoxic interaction with AZM: otoprotective antagonistic interactions
  shift toward antagonism in lateral line HC damage as compared to inhibition of the bacterial species on average: 37 %pt.
  EC75 shift: 13-fold
  ototoxic interaction with clarithromycin (CLM): antagonistic interactions

## NC[C@H]1O[C@H](O[C@H]2[C@H](O)[C@@H](O[C@H]3O[C@H](CO)[C@@H](O)[C@H](N)[C@H]3O)[C@H](N)C[C@@H]2N)[C@H](O)[C@@H](O)[C@@H]1O [Kanamycin (KAN), Kanamycin sulfate]
[2]
  ototoxic interaction with AZM: otoprotective antagonistic interactions
  shift toward antagonism in lateral line HC damage as compared to inhibition of the bacterial species on average: 45 %pt.
  EC75 shift: >16-fold
  ototoxic interaction with clarithromycin (CLM): antagonistic interactions

## CC[C@H]1OC(=O)[C@H](C)[C@@H](O[C@H]2C[C@@](C)(OC)[C@@H](O)[C@H](C)O2)[C@H](C)[C@@H](O[C@@H]2O[C@H](C)C[C@H](N(C)C)[C@H]2O)[C@](C)(O)C[C@@H](C)CN(C)[C@H](C)[C@@H](O)[C@]1(C)O [Azithromycin, Azithromycin dihydrate]
[3]; NEO 50 µM, AZM 190 µM, calcium imaging
  HC cell death (observation): low levels of cell death
[3]; NEO 50 µM, AZM 190 µM, mitoGCaMP3, cytoRGECO larvae
  HC mitochondrial and cytoplasmic calcium response: occasionally observed increases in mitochondrial calcium
[3]; calcium imaging
  cells that survived: 24/25
[1]; listed as AZM
  accumulation of NEO-TR within lateral line HCs: inhibition of NEO-TR uptake; also recorded: reduced HC accumulation of NEO-TR
[1]
  Details (uptake inhibitor mechanism): Prevents neomycin uptake
MET channel; listed as AZM
  FM1-43 uptake into lateral line HCs: does not significantly hinder FM1-43 uptake; also recorded: did not significantly change FM1-43 accumulation in HCs
[2]; 380µM AZM alone, aggregate dose response, AB and myo6b::gfp fish
  RFU remaining on average: Approximately 65%
[2]; 1 h (acute) and 4 h (extended) treatment, conditions in which monotherapy induced significant damage
  protection against NEO and GEN ototoxicity by co-administration: significant protection
[2]; AZM 380 μM, NEO 0 μM, 4 h
  RFU (residual HC fluorescence): 48%
[2]; capreomycin
  protection from CAP-associated damage by co-administration: significant but less pronounced protection
[2]; cisplatin
  protection against damage caused by higher doses of CIS by co-administration: significant but modest protection
[2]
  interaction with neomycin in pairwise screen (wEOB): one of the strongest antagonizing compounds

## NCC[C@H](O)C(=O)N[C@@H]1C[C@H](N)[C@@H](O[C@H]2O[C@H](CN)[C@@H](O)[C@H](O)[C@H]2O)[C@H](O)[C@H]1O[C@H]1O[C@H](CO)[C@@H](O)[C@H](N)[C@H]1O [Amikacin (AMK), Amikacin sulfate]
[2]
  ototoxic interaction with AZM: otoprotective antagonistic interactions
  shift toward antagonism in lateral line HC damage as compared to inhibition of the bacterial species on average: 31 %pt.
  EC75 shift: 8-fold
  ototoxic interaction with clarithromycin (CLM): antagonistic interactions

## NC(=NCc1ccccc1)NC(=O)c1nc(Cl)c(N)nc1N [BZM, Benzamil]
[1]
  accumulation of NEO-TR within lateral line HCs: inhibition of NEO-TR uptake
MET channel
  FM1-43 uptake into lateral line HCs: does significantly reduce FM1-43 uptake; also recorded: significant inhibition of FM1-43 uptake
[2]
  interaction with neomycin in pairwise screen (wEOB): deviate toward antagonism

## NC[C@H]1O[C@H](O[C@H]2[C@H](O)[C@@H](O[C@H]3O[C@H](CO)[C@@H](O)[C@H](N)[C@H]3O)[C@H](N)C[C@@H]2N)[C@H](N)C[C@@H]1O [Tobramycin (TOB), Tobramycin]
[2]
  ototoxic interaction with AZM: otoprotective antagonistic interactions
  shift toward antagonism in lateral line HC damage as compared to inhibition of the bacterial species on average: 15 %pt.
  EC75 shift: >16-fold

## N.N.[Cl][Pt][Cl] [Cisplatin (CIS), Cisplatin]
[2]
  HC inhibition: 81%
  EC50 shift: 1.4 fold
  EC75 shift: 1.8-fold
[2]; listed as CIS
  EC75 shift: 1.8 fold

## Capreomycin sulfate [Capreomycin (CAP)]
[2]
  HC inhibition: 90%
  EC50 shift: 1.9 fold
  EC75 shift: 2.8-fold
[2]; listed as CAP
  EC75 shift: 2.8 fold

Reference: article PMC10955247, “In vivo screening for toxicity-modulating drug interactions identifies antagonism that protects against ototoxicity in zebrafish” (Frontiers in Pharmacology, 2024)
